Test results reported in patent US6645918B1, “N-([1,2,4]triazoloazinyl)thiophenesulfonamide compounds and their use as herbicides” (Dow AgroSciences LLC, priority 2000, dated 2003).

Key:
[1] = test system: chickweed (Stellaria media); assay: Postemergence herbicidal activity, chickweed; assay type: in vivo; conditions: foliar spray, visual after 2 weeks, 0 no injury, 100 complete kill
How it was run: (§1)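 Visual injury, rated 0–100% against untreated plants 2 weeks after treatment, is the read-out. Compound was sprayed to thorough coverage on seedlings at the first or second true leaf stage, with application rates where 1 ppm equals roughly 1 g/ha.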

[2] = test system: cocklebur (Xanthium strumarium); assay: Postemergence herbicidal activity, cocklebur; assay type: in vivo; conditions: foliar spray, visual after 2 weeks, 0 no injury, 100 complete kill
How it was run: as §1

[3] = test system: lambsquarters (Chenopodium album); assay: Postemergence herbicidal activity, lambsquarters; assay type: in vivo; conditions: foliar spray, visual after 2 weeks, 0 no injury, 100 complete kill
How it was run: as §1

[4] = test system: morningglory (Ipomoea hederacea); assay: Postemergence herbicidal activity, morningglory; assay type: in vivo; conditions: foliar spray, visual after 2 weeks, 0 no injury, 100 complete kill
How it was run: as §1

[5] = test system: pigweed (Amaranthus retroflexus); assay: Postemergence herbicidal activity, pigweed; assay type: in vivo; conditions: foliar spray, visual after 2 weeks, 0 no injury, 100 complete kill
How it was run: as §1

[6] = test system: velvetleaf (Abutilion theophrasti); assay: Postemergence herbicidal activity, velvetleaf; assay type: in vivo; conditions: foliar spray, visual after 2 weeks, 0 no injury, 100 complete kill
How it was run: as §1

viola (Viola tricolor) = assay: Postemergence herbicidal activity, viola; assay type: in vivo; conditions: foliar spray, visual after 2 weeks, 0 no injury, 100 complete kill
How it was run: as §1

[7] = test system: wild buckwheat (Polygonum convolvulus); assay: Postemergence herbicidal activity, wild buckwheat; assay type: in vivo; conditions: foliar spray, visual after 2 weeks, 0 no injury, 100 complete kill
How it was run: as §1

[8] = test system: blackgrass (Alopecurus myosuroides); assay: Postemergence herbicidal activity, blackgrass; assay type: in vivo; conditions: foliar spray, visual after 2 weeks, 0 no injury, 100 complete kill
How it was run: as §1

[9] = test system: giant foxtail (Setaria faberi); assay: Postemergence herbicidal activity, giant foxtail; assay type: in vivo; conditions: foliar spray, visual after 2 weeks, 0 no injury, 100 complete kill
How it was run: as §1

[10] = test system: Rox orange sorghum (Sorghum bicolor); assay: Postemergence herbicidal activity, Rox orange sorghum; assay type: in vivo; conditions: foliar spray, visual after 2 weeks, 0 no injury, 100 complete kill
How it was run: as §1

wild oats (Avena fatua) [11] = assay: Postemergence herbicidal activity, wild oats; assay type: in vivo; conditions: foliar spray, visual after 2 weeks, 0 no injury, 100 complete kill
How it was run: as §1

[12] = test system: cocklebur (Xanthium strumarium); assay: Preemergence herbicidal activity, cocklebur; assay type: in vivo; conditions: soil spray, visual after 3 weeks, 0 no injury, 100 complete kill or no germination
How it was run: (§2)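 Soil-surface application after seeding: test material dissolved in 97:3 acetone:DMSO, brought up in 99.9:0.1 water:Tween 155, sprayed at rates up to 4.48 kg/ha. Plants grew under greenhouse conditions for three weeks before percent damage was judged by eye relative to untreated plants.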

[13] = test system: lambsquarters (Chenopodium album); assay: Preemergence herbicidal activity, lambsquarters; assay type: in vivo; conditions: soil spray, visual after 3 weeks, 0 no injury, 100 complete kill or no germination
How it was run: as §2

[14] = test system: morningglory (Ipomoea hederacea); assay: Preemergence herbicidal activity, morningglory; assay type: in vivo; conditions: soil spray, visual after 3 weeks, 0 no injury, 100 complete kill or no germination
How it was run: as §2

[15] = test system: pigweed (Amaranthus retroflexus); assay: Preemergence herbicidal activity, pigweed; assay type: in vivo; conditions: soil spray, visual after 3 weeks, 0 no injury, 100 complete kill or no germination
How it was run: as §2

[16] = test system: velvetleaf (Abutilion theophrasti); assay: Preemergence herbicidal activity, velvetleaf; assay type: in vivo; conditions: soil spray, visual after 3 weeks, 0 no injury, 100 complete kill or no germination
How it was run: as §2

[17] = test system: wild poinsettia (Euphorbia heterophylla); assay: Preemergence herbicidal activity, wild poinsettia; assay type: in vivo; conditions: soil spray, visual after 3 weeks, 0 no injury, 100 complete kill or no germination
How it was run: as §2

[18] = test system: blackgrass (Alopecurus myosuroides); assay: Preemergence herbicidal activity, blackgrass; assay type: in vivo; conditions: soil spray, visual after 3 weeks, 0 no injury, 100 complete kill or no germination
How it was run: as §2

[19] = test system: barnyardgrass (Echinochloa crus-galli); assay: Preemergence herbicidal activity, barnyardgrass; assay type: in vivo; conditions: soil spray, visual after 3 weeks, 0 no injury, 100 complete kill or no germination
How it was run: as §2

[20] = test system: crabgrass (Digitaria sanguinalis); assay: Preemergence herbicidal activity, crabgrass; assay type: in vivo; conditions: soil spray, visual after 3 weeks, 0 no injury, 100 complete kill or no germination
How it was run: as §2

[21] = test system: giant foxtail (Setaria faberi); assay: Preemergence herbicidal activity, giant foxtail; assay type: in vivo; conditions: soil spray, visual after 3 weeks, 0 no injury, 100 complete kill or no germination
How it was run: as §2

[22] = test system: Rox orange sorghum (Sorghum bicolor); assay: Preemergence herbicidal activity, Rox orange sorghum; assay type: in vivo; conditions: soil spray, visual after 3 weeks, 0 no injury, 100 complete kill or no germination
How it was run: as §2

wild oats (Avena fatua) [23] = assay: Preemergence herbicidal activity, wild oats; assay type: in vivo; conditions: soil spray, visual after 3 weeks, 0 no injury, 100 complete kill or no germination
How it was run: as §2

COc1ccsc1S(=O)(=O)Nc1nc2c(OC)cnc(OC)n2n1 [Compound 1, 3-Methoxy-N-(5,8-dimethoxy[1,2,4]triazolo[1,5-c]pyrimidin-2-yl)thiophene-2-sulfonamide]
STEME postemergence injury score 0-100 ([1]; 3.9 ppm): 75%
XANST postemergence injury score 0-100 ([2]; 3.9 ppm): 50%
CHEAL postemergence injury score 0-100 ([3]; 3.9 ppm): 75%
IPOHE postemergence injury score 0-100 ([4]; 3.9 ppm): 85%
AMARE postemergence injury score 0-100 ([5]; 3.9 ppm): 95%
ABUTH postemergence injury score 0-100 ([6]; 3.9 ppm): 75%
VIOTR postemergence injury score 0-100 (viola (Viola tricolor); 3.9 ppm): 70%
POLCO postemergence injury score 0-100 ([7]; 3.9 ppm): 98%
ALOMY postemergence injury score 0-100 ([8]; 3.9 ppm): 95%
SETFA postemergence injury score 0-100 ([9]; 3.9 ppm): 100%
SORBI postemergence injury score 0-100 ([10]; 3.9 ppm): 98%
AVEFA postemergence injury score 0-100 (wild oats (Avena fatua) [11]; 3.9 ppm): 99%
XANST preemergence injury score 0-100 ([12]; 17.5 g/Ha): 70%
CHEAL preemergence injury score 0-100 ([13]; 17.5 g/Ha): 98%
IPOHE preemergence injury score 0-100 ([14]; 17.5 g/Ha): 85%
AMARE preemergence injury score 0-100 ([15]; 17.5 g/Ha): 100%
ABUTH preemergence injury score 0-100 ([16]; 17.5 g/Ha): 98%
EPHHL preemergence injury score 0-100 ([17]; 17.5 g/Ha): 100%
ALOMY preemergence injury score 0-100 ([18]; 17.5 g/Ha): 100%
ECHCG preemergence injury score 0-100 ([19]; 17.5 g/Ha): 100%
DIGSA preemergence injury score 0-100 ([20]; 17.5 g/Ha): 100%
SETFA preemergence injury score 0-100 ([21]; 17.5 g/Ha): 100%
SORBI preemergence injury score 0-100 ([22]; 17.5 g/Ha): 100%
AVEFA preemergence injury score 0-100 (wild oats (Avena fatua) [23]; 17.5 g/Ha): 100%
melting point: 227 to 228 °C

COc1cc(OC)n2nc(NS(=O)(=O)c3c(OC)csc3C)nc2n1 [Compound 24]
STEME postemergence injury score 0-100 ([1]; 7.8 ppm): 80%
XANST postemergence injury score 0-100 ([2]; 7.8 ppm): 90%
CHEAL postemergence injury score 0-100 ([3]; 7.8 ppm): 85%
IPOHE postemergence injury score 0-100 ([4]; 7.8 ppm): 80%
AMARE postemergence injury score 0-100 ([5]; 7.8 ppm): 100%
ABUTH postemergence injury score 0-100 ([6]; 7.8 ppm): 70%
VIOTR postemergence injury score 0-100 (viola (Viola tricolor); 7.8 ppm): 70%
POLCO postemergence injury score 0-100 ([7]; 7.8 ppm): 70%
ALOMY postemergence injury score 0-100 ([8]; 7.8 ppm): 80%
SETFA postemergence injury score 0-100 ([9]; 7.8 ppm): 90%
SORBI postemergence injury score 0-100 ([10]; 7.8 ppm): 100%
AVEFA postemergence injury score 0-100 (wild oats (Avena fatua) [11]; 7.8 ppm): 70%
XANST preemergence injury score 0-100 ([12]; 8.8 g/Ha): 70%
CHEAL preemergence injury score 0-100 ([13]; 8.8 g/Ha): 100%
IPOHE preemergence injury score 0-100 ([14]; 8.8 g/Ha): 98%
AMARE preemergence injury score 0-100 ([15]; 8.8 g/Ha): 90%
ABUTH preemergence injury score 0-100 ([16]; 8.8 g/Ha): 98%
EPHHL preemergence injury score 0-100 ([17]; 8.8 g/Ha): 80%
ALOMY preemergence injury score 0-100 ([18]; 8.8 g/Ha): 90%
ECHCG preemergence injury score 0-100 ([19]; 8.8 g/Ha): 40%
DIGSA preemergence injury score 0-100 ([20]; 8.8 g/Ha): 98%
SETFA preemergence injury score 0-100 ([21]; 8.8 g/Ha): 100%
SORBI preemergence injury score 0-100 ([22]; 8.8 g/Ha): 100%
AVEFA preemergence injury score 0-100 (wild oats (Avena fatua) [23]; 8.8 g/Ha): 70%

COc1cc(OC)n2nc(NS(=O)(=O)c3c(OC)csc3C(F)(F)F)nc2n1 [Compound 25]
STEME postemergence injury score 0-100 ([1]; 31 ppm): 60%
XANST postemergence injury score 0-100 ([2]; 31 ppm): 90%
CHEAL postemergence injury score 0-100 ([3]; 31 ppm): 90%
IPOHE postemergence injury score 0-100 ([4]; 31 ppm): 70%
AMARE postemergence injury score 0-100 ([5]; 31 ppm): 90%
ABUTH postemergence injury score 0-100 ([6]; 31 ppm): 70%
VIOTR postemergence injury score 0-100 (viola (Viola tricolor); 31 ppm): 70%
POLCO postemergence injury score 0-100 ([7]; 31 ppm): 70%
ALOMY postemergence injury score 0-100 ([8]; 31 ppm): 80%
SETFA postemergence injury score 0-100 ([9]; 31 ppm): 80%
SORBI postemergence injury score 0-100 ([10]; 31 ppm): 95%
AVEFA postemergence injury score 0-100 (wild oats (Avena fatua) [11]; 31 ppm): 80%
XANST preemergence injury score 0-100 ([12]; 17.5 g/Ha): 50%
CHEAL preemergence injury score 0-100 ([13]; 17.5 g/Ha): 90%
IPOHE preemergence injury score 0-100 ([14]; 17.5 g/Ha): 60%
AMARE preemergence injury score 0-100 ([15]; 17.5 g/Ha): 95%
ABUTH preemergence injury score 0-100 ([16]; 17.5 g/Ha): 80%
EPHHL preemergence injury score 0-100 ([17]; 17.5 g/Ha): 80%
ALOMY preemergence injury score 0-100 ([18]; 17.5 g/Ha): 95%
ECHCG preemergence injury score 0-100 ([19]; 17.5 g/Ha): 85%
DIGSA preemergence injury score 0-100 ([20]; 17.5 g/Ha): 85%
SETFA preemergence injury score 0-100 ([21]; 17.5 g/Ha): 85%
SORBI preemergence injury score 0-100 ([22]; 17.5 g/Ha): 90%
AVEFA preemergence injury score 0-100 (wild oats (Avena fatua) [23]; 17.5 g/Ha): 80%
